Laboratory results: the NIST ThermoML archive (doi:10.1021/acs.jced.7b00039)

Tests used:
[1] = 100 kPa, Liquid; for viscosity: Cone and plate viscometry; for mass density: Vibrating tube method
[2] = wn = mass fraction of the nth substance listed; conditions: 100 kPa, Liquid; for viscosity: Cone and plate viscometry; for mass density: Vibrating tube method

CC(CC(C)(C)C)CP(=O)([O-])CC(C)CC(C)(C)C.CCCCCCCCCCCCCC[P+](CCCCCC)(CCCCCC)CCCCCC
[1]
Conditions | mass density [kg/m3] | viscosity [mPa·s]
298 K | 883.68 | 1023
310 K | 876.52 | 521
318 K | 871.79 | 345

CC(CC(C)(C)C)CP(=O)([O-])CC(C)CC(C)(C)C.CCCCCCCCCCCCCC[P+](CCCCCC)(CCCCCC)CCCCCC + O
[2]
Conditions | mass density, 298 K [kg/m3] | mass density, 310 K [kg/m3] | mass density, 318 K [kg/m3] | viscosity, 298 K [mPa·s] | viscosity, 310 K [mPa·s] | viscosity, 318 K [mPa·s]
w2 = 0.00047 | 884.09 | 876.93 | 872.2 | 1023 | 521 | 345
w2 = 0.00122 | 884.98 | 877.82 | 873.07 | 996 | 512 | 337
w2 = 0.00289 | 886.11 | 878.88 | 874.07 | 924 | 476 | 313
w2 = 0.00582 | 886.78 | 879.48 | 874.64 | 796 | 401 | 263
w2 = 0.0147 | 887.75 | 880.36 | 875.46 | 646 | 321 | 210
w2 = 0.0317 | 890.65 | 883.04 | 878.08 | 431 | 211 | 137
w2 = 0.081 | 898.06 | 890.2 | 884.95 | 261 | 125 | 81.6
w2 = 0.142 | – | – | 893.78 | – | – | 55.6
w2 = 0.146 | – | 900.11 | – | – | 79.7 | –
w2 = 0.154 | – | – | – | 142 | – | –
w2 = 0.156 | 909.07 | – | – | 142 | – | –

O [water]
[1]
Conditions | mass density [kg/m3] | viscosity [mPa·s]
298 K | – | 0.89
310 K | 993.35 | 0.686
318 K | – | 0.581

O [water] + CC(CC(C)(C)C)CP(=O)([O-])CC(C)CC(C)(C)C.CCCCCCCCCCCCCC[P+](CCCCCC)(CCCCCC)CCCCCC
[2], w1 = 1
Conditions | mass density [kg/m3] | viscosity [mPa·s]
298 K | – | 0.89
310 K | 993.35 | 0.686
318 K | – | 0.581
